Data as given in US20230200390A1, “SELECTIVE HERBICIDES BASED ON SUBSTITUTED ISOXAZOLIN CARBOXAMIDES AND MEFENPYR-DIETHYL” (BAYER AKTIENGESELLSCHAFT, priority 2020, published 2023).

Tests used:
Type in all cases: in vivo
[1] = test system: spring wheat, TRZAS Triso; test: Tank-mix; post-emergence: crop damage by herbicide with/without safener mefenpyr-diethyl
Method in brief: (§1)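 Visual percent crop damage (0–100 relative to untreated plants) assessed 1–3 weeks post-application. Plants in sandy loam were sprayed at the 1–3-leaf stage with herbicide with or without safener at several rates, water volume 300 l/ha.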

[2] = test system: spring barley, HORVS Montoya; test: as above
Method in brief: as §1

[3] = test system: spring wheat, TRZAS Triso; test: Seed treatment with safener; post-emergence herbicide, crop damage; conditions: for HER effect + SAF [%] (crop damage) / Reduction [%] / Reduction [Difference]: mefenpyr-diethyl 0.5 g a.i./kg seed; for HER effect [%] (crop damage, herbicide without safener): no safener
Method in brief: (§2)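 Crop injury was rated visually in % at 10 and 21 days after post-emergence spraying at the 2-leaf stage. The herbicide was a WP in 300 l/ha water plus 1 l/ha MERO. Plants grew from seed either safener-coated at stated g a.i./kg rates via a milk-diluted slurry, or untreated.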

[4] = test system: spring barley, HORVS Montoya; test: as above; conditions: for HER effect + SAF / Reduction [%] / Reduction [Difference]: mefenpyr-diethyl 0.5 g a.i./kg seed
Method in brief: as §2

[5] = HER 2 g a.i./ha + mefenpyr-diethyl 50 g a.i./ha, 21 DAT
[6] = HER 1.5 g a.i./ha + mefenpyr-diethyl 50 g a.i./ha, 21 DAT
[7] = HER 0.5 g a.i./ha post-emergence, 21 DAT
[8] = HER 2 g a.i./ha post-emergence, 21 DAT
[9] = HER 8 g a.i./ha post-emergence, 21 DAT
[10] = HER 6 g a.i./ha + mefenpyr-diethyl 50 g a.i./ha, 10 DAT
[11] = HER 24 g a.i./ha + mefenpyr-diethyl 100 g a.i./ha, 10 DAT
[12] = HER 8 g a.i./ha + mefenpyr-diethyl 50 g a.i./ha, 10 DAT
[13] = HER 8 g a.i./ha post-emergence, 10 DAT
[14] = HER 32 g a.i./ha post-emergence, 10 DAT
[15] = HER 1 g a.i./ha + mefenpyr-diethyl 50 g a.i./ha, 21 DAT
[16] = HER 1 g a.i./ha + mefenpyr-diethyl 50 g a.i./ha, 10 DAT
[17] = HER 4 g a.i./ha post-emergence, 21 DAT
[18] = HER 16 g a.i./ha post-emergence, 21 DAT

CC(C)OC(=O)C1CC(NC(=O)C2(C(C)(F)F)CC(c3cc(F)cc(F)c3)=NO2)CO1 (mixture of isomers) [Example 1.88]
HER effect + SAF [1, 5]: 30% | Reduction [%] [1, 5]: 57% | Reduction [Difference] [1, 5]: 40 | HER effect ([1]; herbicide alone 2 g a.i./ha, 21 DAT): 70% | HER effect + SAF [2, 6]: 10% | Reduction [%] [2, 6]: 75% | Reduction [Difference] [2, 6]: 30 | HER effect ([2]; herbicide alone 1.5 g a.i./ha, 21 DAT): 40% | HER effect + SAF [%] (crop damage) ([3]; 21 DAT, HER dose 2 g a.i./ha): 10% | Reduction [%] ([3]; 21 DAT, HER dose 2 g a.i./ha): 86% | Reduction [Difference] ([3]; 21 DAT, HER dose 2 g a.i./ha): 60 | HER effect [%] (crop damage, herbicide without safener) ([3]; 21 DAT, HER dose 2 g a.i./ha): 70% | HER effect + SAF [%] (crop damage) ([3]; 21 DAT, HER dose 8 g a.i./ha): 20% | Reduction [%] ([3]; 21 DAT, HER dose 8 g a.i./ha): 76% | Reduction [Difference] ([3]; 21 DAT, HER dose 8 g a.i./ha): 65 | HER effect [%] (crop damage, herbicide without safener) ([3]; 21 DAT, HER dose 8 g a.i./ha): 85% | HER effect + SAF [4, 7]: 0% | Reduction [%] [4, 7]: 100% | Reduction [Difference] [4, 7]: 20 | HER effect + SAF [4, 8]: 10% | Reduction [%] [4, 8]: 80% | Reduction [Difference] [4, 8]: 40 | HER effect + SAF [4, 9]: 20% | Reduction [%] [4, 9]: 76% | Reduction [Difference] [4, 9]: 65 | HER effect ([4]; herbicide alone 0.5 g a.i./ha post-emergence, 21 DAT): 20% | HER effect ([4]; herbicide alone 2 g a.i./ha post-emergence, 21 DAT): 50% | HER effect ([4]; herbicide alone 8 g a.i./ha post-emergence, 21 DAT): 85%

CC1(C(=O)NC2CC=C(C(=O)NS(C)(=O)=O)C2)CC(c2cc(F)cc(F)c2)=NO1 (mixture of isomers) [Example 1.61]
HER effect + SAF [1, 10]: 10% | Reduction [%] [1, 10]: 80% | Reduction [Difference] [1, 10]: 40 | HER effect + SAF [1, 11]: 20% | Reduction [%] [1, 11]: 60% | Reduction [Difference] [1, 11]: 30 | HER effect ([1]; herbicide alone 6 g a.i./ha, 10 DAT): 50% | HER effect ([1]; herbicide alone 24 g a.i./ha, 10 DAT): 50% | HER effect + SAF [2, 12]: 30% | Reduction [%] [2, 12]: 40% | Reduction [Difference] [2, 12]: 20 | HER effect ([2]; herbicide alone 8 g a.i./ha, 10 DAT): 50% | HER effect + SAF [%] (crop damage) ([3]; 10 DAT, HER dose 8 g a.i./ha): 10% | Reduction [%] ([3]; 10 DAT, HER dose 8 g a.i./ha): 80% | Reduction [Difference] ([3]; 10 DAT, HER dose 8 g a.i./ha): 40 | HER effect [%] (crop damage, herbicide without safener) ([3]; 10 DAT, HER dose 8 g a.i./ha): 50% | HER effect + SAF [4, 13]: 10% | Reduction [%] [4, 13]: 80% | Reduction [Difference] [4, 13]: 40 | HER effect + SAF [4, 14]: 20% | Reduction [%] [4, 14]: 67% | Reduction [Difference] [4, 14]: 40 | HER effect ([4]; herbicide alone 8 g a.i./ha post-emergence, 10 DAT): 50% | HER effect ([4]; herbicide alone 32 g a.i./ha post-emergence, 10 DAT): 60%

CC1(C(=O)NC2C=CC(C(=O)O)C2)CC(c2cc(F)cc(F)c2)=NO1 (centres unmarked) [Example 1.36]
HER effect + SAF [1, 15]: 20% | Reduction [%] [1, 15]: 76% | Reduction [Difference] [1, 15]: 65 | HER effect ([1]; herbicide alone 1 g a.i./ha, 21 DAT): 85% | HER effect + SAF [2, 16]: 60% | Reduction [%] [2, 16]: 25% | Reduction [Difference] [2, 16]: 20 | HER effect ([2]; herbicide alone 1 g a.i./ha, 10 DAT): 80% | HER effect + SAF [%] (crop damage) ([3]; 21 DAT, HER dose 1 g a.i./ha): 0% | Reduction [%] ([3]; 21 DAT, HER dose 1 g a.i./ha): 100% | Reduction [Difference] ([3]; 21 DAT, HER dose 1 g a.i./ha): 85 | HER effect [%] (crop damage, herbicide without safener) ([3]; 21 DAT, HER dose 1 g a.i./ha): 85% | HER effect + SAF [%] (crop damage) ([3]; 21 DAT, HER dose 4 g a.i./ha): 30% | Reduction [%] ([3]; 21 DAT, HER dose 4 g a.i./ha): 68% | Reduction [Difference] ([3]; 21 DAT, HER dose 4 g a.i./ha): 63 | HER effect [%] (crop damage, herbicide without safener) ([3]; 21 DAT, HER dose 4 g a.i./ha): 93% | HER effect + SAF [%] (crop damage) ([3]; 21 DAT, HER dose 16 g a.i./ha): 50% | Reduction [%] ([3]; 21 DAT, HER dose 16 g a.i./ha): 47% | Reduction [Difference] ([3]; 21 DAT, HER dose 16 g a.i./ha): 45 | HER effect [%] (crop damage, herbicide without safener) ([3]; 21 DAT, HER dose 16 g a.i./ha): 95% | HER effect + SAF [4, 17]: 50% | Reduction [%] [4, 17]: 46% | Reduction [Difference] [4, 17]: 43 | HER effect + SAF [4, 18]: 70% | Reduction [%] [4, 18]: 26% | Reduction [Difference] [4, 18]: 25 | HER effect ([4]; herbicide alone 4 g a.i./ha post-emergence, 21 DAT): 93% | HER effect ([4]; herbicide alone 16 g a.i./ha post-emergence, 21 DAT): 95%
